pIC50: −log10 of the molar value. Where two headings read alike, the source gives them in different places.
Tested on: KM12 cells
Experiment: Cell viability assay (CellTiter-Glo) in KM12 cells
Type: cell-based
Conditions: Homo sapiens, 72 h, KM12 cell viability, CellTiter-Glo, 3 days, read-out: IC50

SMILES	pIC50 (Table 2)	pIC50 (Table 3)	other results
O=C1CCC(N2C(=O)c3ccc(N4CC(C(=O)N5CCN(c6cccc(-c7cnc8ccc(N9CCC[C@@H]9c9cccc(F)c9)nn78)n6)CC5)C4)cc3C2=O)C(=O)N1 (stereo partly drawn) [TR-211, 2-(2,6-Dioxopiperidin-3-yl)-5-(3-(4-(6-(6-((R)-2-(3-fluorophenyl)pyrrolidin-1-yl)imidazo[1,2-b]pyridazin-3-yl)pyridin-2-yl)piperazine-1-carbonyl)azetidin-1-yl)isoindoline-1,3-dione]			pIC50 (Table 4): 8.70
O=C1CCC(N2C(=O)c3cccc(NCC(=O)N4CCN(c5ccc(C(=O)Nc6n[nH]c7ccc(Cc8cc(F)cc(F)c8)cc67)c(NC6CCOCC6)c5)CC4)c3C2=O)C(=O)N1 (stereo not drawn) [CPD-055, N-(5-(3,5-difluorobenzyl)-1H-indazol-3-yl)-4-(4-((2-(2,6-dioxopiperidin-3-yl)-1,3-dioxoisoindolin-4-yl)glycyl)piperazin-1-yl)-2-((tetrahydro-2H-pyran-4-yl)amino)benzamide]	7.89		
Cc1ncsc1-c1ccc(CNC(=O)[C@@H]2C[C@@H](O)CN2C(=O)[C@@H](NC(=O)CCCCCCCC(=O)N2CCN(c3ccc(C(=O)Nc4n[nH]c5ccc(Cc6cc(F)cc(F)c6)cc45)c(NC4CCOCC4)c3)CC2)C(C)(C)C)cc1 [CPD-037, (2S,4R)-1-((S)-2-(9-(4-(4-((5-(3,5-Difluorobenzyl)-1H-indazol-3-yl)carbamoyl)-3-((tetrahydro-2H-pyran-4-yl)amino)phenyl)piperazin-1-yl)-9-oxononanamido)-3,3-dimethylbutanoyl)-4-hydroxy-N-(4-(4-methylthiazol-5-yl)benzyl)pyrrolidine-2-carboxamide]	6.82		
Cc1ncsc1-c1ccc(CNC(=O)[C@@H]2C[C@@H](O)CN2C(=O)[C@@H](NC(=O)CCCCCCC(=O)N2CCN(c3ccc(C(=O)Nc4n[nH]c5ccc(Cc6cc(F)cc(F)c6)cc45)c(NC4CCOCC4)c3)CC2)C(C)(C)C)cc1 [CPD-033, (2S,4R)-1-((S)-2-(8-(4-(4-((5-(3,5-difluorobenzyl)-1H-indazol-3-yl)carbamoyl)-3-((tetrahydro-2H-pyran-4-yl)amino)phenyl)piperazin-1-yl)-8-oxooctanamido)-3,3-dimethylbutanoyl)-4-hydroxy-N-(4-(4-methylthiazol-5-yl)benzyl)pyrrolidine-2-carboxamide]	7.00		
Cc1ncsc1-c1ccc(CNC(=O)[C@@H]2C[C@@H](O)CN2C(=O)[C@@H](NC(=O)CCOCCOCCOCCOCCC(=O)N2CCN(c3cccc(-c4cnc5ccc(N6CCC[C@@H]6c6cccc(F)c6)nn45)n3)CC2)C(C)(C)C)cc1 [CPD-019, (2S,4R)-1-((S)-2-(tert-butyl)-19-(4-(6-(6-((R)-2-(3-Fluorophenyl)pyrrolidin-1-yl)imidazo[1,2-b]pyridazin-3-yl)pyridin-2-yl)piperazin-1-yl)-4,19-dioxo-7,10,13,16-tetraoxa-3-azanonadecanoyl)-4-hydroxy-N-(4-(4-methylthiazol-5-yl)benzyl)pyrrolidine-2-carboxamide]	6.30		
Cc1ncsc1-c1ccc(CNC(=O)[C@@H]2C[C@@H](O)CN2C(=O)[C@@H](NC(=O)CCCCCCCCCC(=O)N2CCN(c3cccc(-c4cnc5ccc(N6CCC[C@@H]6c6cccc(F)c6)nn45)n3)CC2)C(C)(C)C)cc1 [CPD-022, (2S,4R)-1-((S)-2-(11-(4-(6-(6-((R)-2-(3-Fluorophenyl)pyrrolidin-1-yl)imidazo[1,2-b]pyridazin-3-yl)pyridin-2-yl)piperazin-1-yl)-11-oxoundecanamido)-3,3-dimethylbutanoyl)-4-hydroxy-N-(4-(4-methylthiazol-5-yl)benzyl)pyrrolidine-2-carboxamide]	7.00		
O=C1CCC(N2C(=O)c3cccc(NCCOCCOCCOCCOCCC(=O)N4CCN(c5ccc(C(=O)Nc6n[nH]c7ccc(Cc8cc(F)cc(F)c8)cc67)c(NC6CCOCC6)c5)CC4)c3C2=O)C(=O)N1 (stereo not drawn) [CPD-031, N-(5-(3,5-Difluorobenzyl)-1H-indazol-3-yl)-4-(4-(1-((2-(2,6-dioxopiperidin-3-yl)-1,3-dioxoisoindolin-4-yl)amino)-3,6,9,12-tetraoxapentadecan-15-oyl)piperazin-1-yl)-2-((tetrahydro-2H-pyran-4-yl)amino)benzamide]	7.16		
O=C1CCC(N2C(=O)c3ccc(N4CC(N5CCN(c6cccc(-c7cnc8ccc(N9CCC[C@@H]9c9cccc(F)c9)nn78)n6)CC5)C4)cc3C2=O)C(=O)N1 (stereo partly drawn) [TR-184, 2-(2,6-dioxopiperidin-3-yl)-5-(3-(4-(6-(6-((R)-2-(3-fluorophenyl)pyrrolidin-1-yl)imidazo[1,2-b]pyridazin-3-yl)pyridin-2-yl)piperazin-1-yl)azetidin-1-yl)isoindoline-1,3-dione]		8.03	
Cc1ncsc1-c1ccc(CNC(=O)[C@@H]2C[C@@H](O)CN2C(=O)[C@@H](NC(=O)CCOCCOCCOCCC(=O)N2CCN(c3cccc(-c4cnc5ccc(N6CCC[C@@H]6c6cccc(F)c6)nn45)n3)CC2)C(C)(C)C)cc1 [CPD-016, (2S,4R)-1-((S)-2-(tert-butyl)-16-(4-(6-(6-((R)-2-(3-Fluorophenyl)pyrrolidin-1-yl)imidazo[1,2-b]pyridazin-3-yl)pyridin-2-yl)piperazin-1-yl)-4,16-dioxo-7,10,13-trioxa-3-azahexadecanoyl)-4-hydroxy-N-(4-(4-methylthiazol-5-yl)benzyl)pyrrolidine-2-carboxamide]	6.82		
O=C(CN1CCN(c2cccc(-c3cnc4ccc(N5CCC[C@@H]5c5cccc(F)c5)nn34)n2)CC1)NCCCCCCCNc1ccc2c(c1)C(=O)N(C1CCC(=O)NC1=O)C2=O (stereo partly drawn) [TR-126, N-(7-((2-(2,6-dioxopiperidin-3-yl)-1,3-dioxoisoindolin-5-yl)amino)heptyl)-2-(4-(6-(6-((R)-2-(3-fluorophenyl)pyrrolidin-1-yl)imidazo[1,2-b]pyridazin-3-yl)pyridin-2-yl)piperazin-1-yl)acetamide]		7.90	
O=C1CCC(N2Cc3cc(C#CC(=O)N4CCN(c5cccc(-c6cnc7ccc(N8CCC[C@@H]8c8cccc(F)c8)nn67)n5)CC4)ccc3C2=O)C(=O)N1 (stereo partly drawn) [TR-203]		8.43	
O=C1CCC(N2C(=O)c3ccc(NCCCCCC(=O)N4CCN(c5cccc(-c6cnc7ccc(N8CCC[C@@H]8c8cccc(F)c8)nn67)n5)CC4)cc3C2=O)C(=O)N1 (stereo partly drawn) [TR-122, 2-(2,6-Dioxopiperidin-3-yl)-5-((6-(4-(6-(6-((R)-2-(3-fluorophenyl)pyrrolidin-1-yl)imidazo[1,2-b]pyridazin-3-yl)pyridin-2-yl)piperazin-1-yl)-6-oxohexyl)amino)isoindoline-1,3-dione]		8.57	
Cc1ncsc1-c1ccc(CNC(=O)[C@@H]2C[C@@H](O)CN2C(=O)[C@@H](NC(=O)COCCOCCOCC(=O)N2CCN(c3ccc(C(=O)Nc4n[nH]c5ccc(Cc6cc(F)cc(F)c6)cc45)c(NC4CCOCC4)c3)CC2)C(C)(C)C)cc1 [CPD-058, (2S,4R)-1-((S)-2-(tert-butyl)-14-(4-(4-((5-(3,5-Difluorobenzyl)-1H-indazol-3-yl)carbamoyl)-3-((tetrahydro-2H-pyran-4-yl)amino)phenyl)piperazin-1-yl)-4,14-dioxo-6,9,12-trioxa-3-azatetradecanoyl)-4-hydroxy-N-(4-(4-methylthiazol-5-yl)benzyl)pyrrolidine-2-carboxamide]	< 6.00		
O=C1CCC(N2C(=O)c3ccc(NCCCCCCC(=O)N4CCN(c5ccc(C(=O)Nc6n[nH]c7ccc(Cc8cc(F)cc(F)c8)cc67)c(NC6CCOCC6)c5)CC4)cc3C2=O)C(=O)N1 (stereo not drawn) [TR-139, N-(5-(3,5-Difluorobenzyl)-1H-indazol-3-yl)-4-(4-(7-((2-(2,6-dioxopiperidin-3-yl)-1,3-dioxoisoindolin-5-yl)amino)heptanoyl)piperazin-1-yl)-2-((tetrahydro-2H-pyran-4-yl)amino)benzamide]		7.57	
O=C1CCC(N2C(=O)c3ccc(NCCOCCOCCC(=O)N4CCN(c5ccc(C(=O)Nc6n[nH]c7ccc(Cc8cc(F)cc(F)c8)cc67)c(NC6CCOCC6)c5)CC4)cc3C2=O)C(=O)N1 (stereo not drawn) [TR-141, N-(5-(3,5-Difluorobenzyl)-1H-indazol-3-yl)-4-(4-(3-(2-(2-((2-(2,6-dioxopiperidin-3-yl)-1,3-dioxoisoindolin-5-yl)amino)ethoxy)ethoxy)propanoyl)piperazin-1-yl)-2-((tetrahydro-2H-pyran-4-yl)amino)benzamide]		8.59	
O=C1CCC(N2C(=O)c3cccc(NCCCCC(=O)N4CCN(c5ccc(C(=O)Nc6n[nH]c7ccc(Cc8cc(F)cc(F)c8)cc67)c(NC6CCOCC6)c5)CC4)c3C2=O)C(=O)N1 (stereo not drawn) [CPD-050, N-(5-(3,5-difluorobenzyl)-1H-indazol-3-yl)-4-(4-(5-((2-(2,6-dioxopiperidin-3-yl)-1,3-dioxoisoindolin-4-yl)amino)pentanoyl)piperazin-1-yl)-2-((tetrahydro-2H-pyran-4-yl)amino)benzamide]	7.55		
Cc1ncsc1-c1ccc(CNC(=O)[C@@H]2C[C@@H](O)CN2C(=O)[C@@H](NC(=O)COCCOCCOCCOCCOCC(=O)N2CCN(c3cccc(-c4cnc5ccc(N6CCC[C@@H]6c6cccc(F)c6)nn45)n3)CC2)C(C)(C)C)cc1 [CPD-003, (2S,4R)-1-((S)-2-(tert-butyl)-20-(4-(6-(6-((R)-2-(3-Fluorophenyl)pyrrolidin-1-yl)imidazo[1,2-b]pyridazin-3-yl)pyridin-2-yl)piperazin-1-yl)-4,20-dioxo-6,9,12,15,18-pentaoxa-3-azaicosanoyl)-4-hydroxy-N-(4-(4-methylthiazol-5-yl)benzyl)pyrrolidine-2-carboxamide]	< 6.00		
O=C(CN1CCN(c2ccc(C(=O)Nc3n[nH]c4ccc(Cc5cc(F)cc(F)c5)cc34)c(NC3CCOCC3)c2)CC1)NCCOCCNc1ccc2c(c1)C(=O)N(C1CCC(=O)NC1=O)C2=O (stereo not drawn) [TR-161, N-(5-(3,5-Difluorobenzyl)-1H-indazol-3-yl)-4-(4-(2-((2-(2-((2-(2,6-dioxopiperidin-3-yl)-1,3-dioxoisoindolin-5-yl)amino)ethoxy)ethyl)amino)-2-oxoethyl)piperazin-1-yl)-2-((tetrahydro-2H-pyran-4-yl)amino)benzamide]		8.33	
